# Results reported in ChEMBL document CHEMBL1201862, “PubChem BioAssay data set” (2004).
#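 48-hour exposure; five concentrations; linearly interpolated endpoints. At the GI50, growth is halved.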 Active and inactive are the calls of the source. No stated cut-off is given here; in the data, active = GI50 up to about 1.1 µM and inactive = higher.
# Tests used:
# Assay in all cases: DTP human tumour cell line panel, 48 h
# 786-0 = tested on: 786-0
# A498 = tested on: A498
# A549 = tested on: A549
# ACHN = tested on: ACHN
# BT-549 = tested on: BT-549
# CAKI-1 = tested on: CAKI-1
# CCRF-CEM = tested on: CCRF-CEM
# COLO 205 = tested on: COLO 205
# DU-145 = tested on: DU-145
# EKVX = tested on: EKVX
# HCC 2998 = tested on: HCC 2998
# HCT-116 = tested on: HCT-116
# HCT-15 = tested on: HCT-15
# HL-60 = tested on: HL-60
# HOP-62 = tested on: HOP-62
# HOP-92 = tested on: HOP-92
# HT-29 = tested on: HT-29
# Hs-578T = tested on: Hs-578T
# IGROV-1 = tested on: IGROV-1
# K562 = tested on: K562
# KM12 = tested on: KM12
# LOX IMVI = tested on: LOX IMVI
# M14 = tested on: M14
# MCF7 = tested on: MCF7
# MDA-MB-231 = tested on: MDA-MB-231
# MDA-MB-435 = tested on: MDA-MB-435
# MDA-N = tested on: MDA-N
# MOLT-4 = tested on: MOLT-4
# Malme-3M = tested on: Malme-3M
# NCI-H23 = tested on: NCI-H23
# NCI-H460 = tested on: NCI-H460
# NCI-H522 = tested on: NCI-H522
# NCI/ADR-RES = tested on: NCI/ADR-RES
# OVCAR-3 = tested on: OVCAR-3
# OVCAR-5 = tested on: OVCAR-5
# OVCAR-8 = tested on: OVCAR-8
# PC-3 = tested on: PC-3
# RPMI-8226 = tested on: RPMI-8226
# RXF 393 = tested on: RXF 393
# SF-268 = tested on: SF-268
# SF-295 = tested on: SF-295
# SF-539 = tested on: SF-539
# SK-MEL-28 = tested on: SK-MEL-28
# SK-MEL-2 = tested on: SK-MEL-2
# SK-MEL-5 = tested on: SK-MEL-5
# SK-OV-3 = tested on: SK-OV-3
# SN12C = tested on: SN12C
# SNB-19 = tested on: SNB-19
# SNB-75 = tested on: SNB-75
# SR = tested on: SR
# SW-620 = tested on: SW-620
# T47D = tested on: T47D
# TK-10 = tested on: TK-10
# U-251 = tested on: U-251
# UACC-257 = tested on: UACC-257
# UACC-62 = tested on: UACC-62
# UO-31 = tested on: UO-31
# NCI-H226 = tested on: NCI-H226
# OVCAR-4 = tested on: OVCAR-4
smiles,measurement,setting,value
CC1(C)[C@H]2CC[C@](C)(C2)[C@]1(S)Cc1ccccn1,GI50,786-0,27 µM (inactive)
same,GI50,A498,> 100 µM (inactive)
same,GI50,A549,42.7 µM (inactive)
same,GI50,ACHN,54.2 µM (inactive)
same,GI50,BT-549,90.4 µM (inactive)
same,GI50,CAKI-1,57.1 µM (inactive)
same,GI50,CCRF-CEM,5 µM (inactive)
same,GI50,COLO 205,34.3 µM (inactive)
same,GI50,DU-145,22.4 µM (inactive)
same,GI50,EKVX,46.5 µM (inactive)
same,GI50,HCC 2998,18.5 µM (inactive)
same,GI50,HCT-116,32.8 µM (inactive)
same,GI50,HCT-15,41.7 µM
same,GI50,HL-60,11.2 µM (inactive)
same,GI50,HOP-62,29.6 µM (inactive)
same,GI50,HOP-92,34.5 µM (inactive)
same,GI50,HT-29,24.9 µM (inactive)
same,GI50,Hs-578T,57.8 µM (inactive)
same,GI50,IGROV-1,30.8 µM (inactive)
same,GI50,K562,26300 nM (inactive)
same,GI50,KM12,42.9 µM (inactive)
same,GI50,LOX IMVI,17.3 µM (inactive)
same,GI50,M14,84.1 µM (inactive)
same,GI50,MCF7,32.5 µM (inactive)
same,GI50,MDA-MB-231,37 µM (inactive)
same,GI50,MDA-MB-435,26.3 µM (inactive)
same,GI50,MDA-N,39.3 µM (inactive)
same,GI50,MOLT-4,15300 nM (inactive)
same,GI50,Malme-3M,46.1 µM (inactive)
same,GI50,NCI-H23,44.6 µM (inactive)
same,GI50,NCI-H460,27.2 µM (inactive)
same,GI50,NCI-H522,65.9 µM (inactive)
same,GI50,NCI/ADR-RES,50.5 µM (inactive)
same,GI50,OVCAR-3,21.7 µM (inactive)
same,GI50,OVCAR-5,88.9 µM (inactive)
same,GI50,OVCAR-8,17.5 µM (inactive)
same,GI50,PC-3,21.7 µM (inactive)
same,GI50,RPMI-8226,21.5 µM (inactive)
same,GI50,RXF 393,26.7 µM (inactive)
same,GI50,SF-268,39.7 µM (inactive)
same,GI50,SF-295,26.4 µM (inactive)
same,GI50,SF-539,> 100 µM (inactive)
same,GI50,SK-MEL-28,> 100 µM (inactive)
same,GI50,SK-MEL-2,20.8 µM (inactive)
same,GI50,SK-MEL-5,21.8 µM (inactive)
same,GI50,SK-OV-3,29.8 µM (inactive)
same,GI50,SN12C,56.8 µM (inactive)
same,GI50,SNB-19,> 100 µM (inactive)
same,GI50,SNB-75,23.9 µM (inactive)
same,GI50,SR,18.1 µM (inactive)
same,GI50,SW-620,36.3 µM (inactive)
same,GI50,T47D,24.5 µM (inactive)
same,GI50,TK-10,32.4 µM (inactive)
same,GI50,U-251,14.4 µM (inactive)
same,GI50,UACC-257,25.6 µM (inactive)
same,GI50,UACC-62,67.8 µM (inactive)
same,GI50,UO-31,> 100 µM (inactive)
O=C/C(=C(/Br)I)c1ccccc1,GI50,786-0,2.54 µM (inactive)
same,GI50,A498,18.6 µM (inactive)
same,GI50,A549,22.9 µM (inactive)
same,GI50,ACHN,3.1 µM (inactive)
same,GI50,BT-549,2.42 µM (inactive)
same,GI50,CAKI-1,2.14 µM (inactive)
same,GI50,CCRF-CEM,0.248 µM (active)
same,GI50,COLO 205,3.91 µM (inactive)
same,GI50,DU-145,15.7 µM (inactive)
same,GI50,EKVX,15.3 µM (inactive)
same,GI50,HCT-116,1.51 µM (inactive)
same,GI50,HCT-15,2.24 µM
same,GI50,HL-60,0.352 µM (active)
same,GI50,HOP-62,15.7 µM (inactive)
same,GI50,HOP-92,2.28 µM (inactive)
same,GI50,HT-29,2.29 µM (inactive)
same,GI50,Hs-578T,9.59 µM (inactive)
same,GI50,IGROV-1,4.41 µM (inactive)
same,GI50,K562,624 nM (active)
same,GI50,KM12,6.61 µM (inactive)
same,GI50,LOX IMVI,3.81 µM (inactive)
same,GI50,M14,1.8 µM (inactive)
same,GI50,MCF7,1.3 µM (inactive)
same,GI50,MDA-MB-231,2.56 µM (inactive)
same,GI50,MDA-MB-435,2.56 µM (inactive)
same,GI50,MDA-N,2.54 µM (inactive)
same,GI50,MOLT-4,597 nM (active)
same,GI50,Malme-3M,1.92 µM (inactive)
same,GI50,NCI-H226,9.64 µM (inactive)
same,GI50,NCI-H23,5.11 µM (inactive)
same,GI50,NCI-H460,8.99 µM (inactive)
same,GI50,NCI-H522,1.78 µM (inactive)
same,GI50,NCI/ADR-RES,3.95 µM (inactive)
same,GI50,OVCAR-3,2.74 µM (inactive)
same,GI50,OVCAR-4,3.86 µM (inactive)
same,GI50,OVCAR-5,9.86 µM (inactive)
same,GI50,OVCAR-8,2.83 µM (inactive)
same,GI50,PC-3,6.35 µM (inactive)
same,GI50,RPMI-8226,2.25 µM (inactive)
same,GI50,RXF 393,2.71 µM (inactive)
same,GI50,SF-268,2.3 µM (inactive)
same,GI50,SF-295,5.77 µM (inactive)
same,GI50,SF-539,2.53 µM (inactive)
same,GI50,SK-MEL-28,1.63 µM (inactive)
same,GI50,SK-MEL-2,3.42 µM (inactive)
same,GI50,SK-MEL-5,7.06 µM (inactive)
same,GI50,SK-OV-3,14.5 µM (inactive)
same,GI50,SN12C,1.9 µM (inactive)
same,GI50,SNB-19,13.6 µM (inactive)
same,GI50,SNB-75,5.45 µM (inactive)
same,GI50,SR,0.448 µM (active)
same,GI50,SW-620,1.15 µM (inactive)
same,GI50,T47D,1.86 µM (inactive)
same,GI50,TK-10,6.12 µM (inactive)
same,GI50,U-251,4.1 µM (inactive)
same,GI50,UACC-257,5.69 µM (inactive)
same,GI50,UACC-62,6.7 µM (inactive)
same,GI50,UO-31,4.97 µM (inactive)
NC(Cc1ccccc1)c1nn[nH]n1 (stereo not drawn),GI50,786-0,> 100 µM (inactive)
same,GI50,A498,> 100 µM (inactive)
same,GI50,A549,> 100 µM (inactive)
same,GI50,ACHN,> 100 µM (inactive)
same,GI50,BT-549,> 100 µM (inactive)
same,GI50,CAKI-1,> 100 µM (inactive)
same,GI50,CCRF-CEM,> 100 µM (inactive)
same,GI50,COLO 205,> 100 µM (inactive)
same,GI50,DU-145,> 100 µM (inactive)
same,GI50,EKVX,> 100 µM (inactive)
same,GI50,HCT-116,> 100 µM (inactive)
same,GI50,HCT-15,> 100 µM
same,GI50,HL-60,> 100 µM (inactive)
same,GI50,HOP-62,> 100 µM (inactive)
same,GI50,HOP-92,> 100 µM (inactive)
same,GI50,HT-29,> 100 µM (inactive)
same,GI50,Hs-578T,> 100 µM (inactive)
same,GI50,IGROV-1,> 100 µM (inactive)
same,GI50,K562,47.6 nM (active)
same,GI50,KM12,> 100 µM (inactive)
same,GI50,LOX IMVI,> 100 µM (inactive)
same,GI50,M14,> 100 µM (inactive)
same,GI50,MCF7,> 100 µM (inactive)
same,GI50,MDA-MB-231,> 100 µM (inactive)
same,GI50,MDA-MB-435,> 100 µM (inactive)
same,GI50,MDA-N,> 100 µM (inactive)
same,GI50,MOLT-4,< 10 nM (active)
same,GI50,Malme-3M,> 100 µM (inactive)
same,GI50,NCI-H226,> 100 µM (inactive)
same,GI50,NCI-H23,> 100 µM (inactive)
same,GI50,NCI-H460,> 100 µM (inactive)
same,GI50,NCI-H522,> 100 µM (inactive)
same,GI50,NCI/ADR-RES,> 100 µM (inactive)
same,GI50,OVCAR-3,> 100 µM (inactive)
same,GI50,OVCAR-4,> 100 µM (inactive)
same,GI50,OVCAR-5,> 100 µM (inactive)
same,GI50,OVCAR-8,> 100 µM (inactive)
same,GI50,PC-3,> 100 µM (inactive)
same,GI50,RPMI-8226,> 100 µM (inactive)
same,GI50,RXF 393,> 100 µM (inactive)
same,GI50,SF-268,> 100 µM (inactive)
same,GI50,SF-295,> 100 µM (inactive)
same,GI50,SF-539,> 100 µM (inactive)
same,GI50,SK-MEL-28,> 100 µM (inactive)
same,GI50,SK-MEL-2,> 100 µM (inactive)
same,GI50,SK-MEL-5,> 100 µM (inactive)
same,GI50,SK-OV-3,> 100 µM (inactive)
same,GI50,SN12C,> 100 µM (inactive)
same,GI50,SNB-19,> 100 µM (inactive)
same,GI50,SNB-75,> 100 µM (inactive)
same,GI50,SR,> 100 µM (inactive)
same,GI50,SW-620,> 100 µM (inactive)
same,GI50,T47D,> 100 µM (inactive)
same,GI50,TK-10,> 100 µM (inactive)
same,GI50,U-251,> 100 µM (inactive)
same,GI50,UACC-257,> 100 µM (inactive)
same,GI50,UACC-62,> 100 µM (inactive)
same,GI50,UO-31,> 100 µM (inactive)
